Patent US20250100962A1 (CITY OF HOPE, priority 2023, published 2025)
Entries after “also recorded” stand apart in the source; their conditions may differ.

How the values were obtained:
[1] = tested on: primary preadipocytes; assay: Adipogenic differentiation of primary preadipocytes; assay type: cell-based, mice; conditions: for mature adipocyte formation: 0.5 and 1 μM
Method: Primary preadipocyte isolation and adipogenic induction. The stromal vascular fraction containing preadipocytes were isolated from subcutaneous fat pads, as described (Chatterjee, Nam, Guo et al., 2013). Briefly, fat pads were cut into pieces and digested using 0.1% collagenase Type 1 with 0.8% BSA at 37° C. in a horizontal shaker for 60 minutes, passed through Nylon mesh and centrifuged to collect the pellet containing the stromal vascular fraction with preadipocytes. Preadipocytes were cultured in F12/DMEM supplemented with bFGF (2.5 ng/ml), expanded for two passages and subjected to differentiation in 6-well plates at 90% confluency. Adipogenic differentiation was induced for 2 days in medium containing 10% FBS, 1.6 μM insulin, 1 μM dexamethasone, 0.5 mM IBMX, 0.5 μM rosiglitazone before switching to maintenance medium for 4 days with insulin only. Nobiletin at indicated concentrations were added for the entire differentiation time course. Oil-red-O and Bodipy staining. These stainings for neutral lipids during adipogenic differentiation were performed as previously described (Nam et al., 2015). Briefly, for oil-red-O staining, cells were fixed using 10% formalin and incubated using 0.5% oil-red-O solution for 1 hour. Bodipy 493/503 was used at 1 mg/L together with DAPI for 15 minutes, following 4% paraformaldehyde fixation and permeabilization with 0.2% triton-X100. Immunoblot analysis. Total protein was extracted using lysis buffer containing 3% NaCl, 5% Tris-HCl, 10% Glycerol, 0.5% Triton X-10 in MilliQ water with protease inhibitor cocktail. 20-40 μg of total protein was resolved on 10% SDS-PAGE gels followed by immunoblotting on PVDF membranes (Bio-rad). Membranes were developed by chemiluminescence (SuperSignal West Pico, Pierce Biotechnology) and signals were obtained via a chemiluminescence imager (Amersham Imager 680, GE Biosciences).

[2] = tested on: C2C12 myoblasts; assay: Myogenic differentiation of C2C12 myoblasts; assay type: cell-based, mouse; conditions: for MyHC-positive mature myotubes (immunofluorescence): C2C12 differentiation day 5-7
Method: Pictures were taken every day to monitor morphological progression, and proteins and RNA samples were collected on days indicated.
C2C12, C2C12 Bmal1 KD and C2C12 Scrambled control (SC) myoblasts were seeded at Day −1 at 2×105 concentration on 12 wells plates and maintained in 10% FBS until 80% confluency and treated with indicated compounds and controls in 2% FBS DMEM media to induce differentiation on Day 0. On days 3, 5 and 7 cells were fixed with 4% paraformaldehyde (from 37% Formaldehyde Baker Analyzed) and kept at 4° C. in PBS. Cells were permeabilized with Permeabilization solution of 0.5% Triton X-100 (Fisher Bioreagents CN: 9002-93-1) in PBS and blocked with Blocking solution of 1% BSA (Fisher Bioreagents CN:9048-46-8) in PBS. Primary antibodies were diluted in Washing solution of 0.01% Triton X-100 (Fisher Bioreagents CN: 9002-93-1) in PBS and left overnight at 4° C. Cells were then incubated with secondary antibodies in Washing solution at room temperature for 1 h. 1 μg/ml 4′,6′-diamidine-2′-phenylindole dihydrochloride (DAPI) was used to label for nuclei. […] To quantify the proliferation of myoblast, when needed, cells were treated with 1 μg/ml of EdU for 3 h before fixation. Detection of EdU was performed with Click-iT EdU Alexa Fluor 488 Imaging Kit before applying the immunofluorescence staining as described above.

[3] = tested on: mdx mouse primary myoblasts; assay: MTT cell viability of mdx mouse primary myoblasts; assay type: cell-based
Method: Cells were seeded at 5×10^4 concentration in 100 μl culture medium into 96 wells flat bottom microplates and treated after 24 h with desired compounds and controls. After desired incubation periods, cells were treated with MTT labeling reagent 1× (MTT (3-[4,5-dimethylthiazol-2-yl]-2,5-diphenyltetrazolium bromide labeling reagent, 5 mg/ml in PBS, Roche Cell Proliferation Kit I (MTT)) and Solubilization buffer 1× (10% SDS in 0.01 M HCl and left overnight. Next morning absorbance was measured at 570 nm and 700 nm on microplate (ELISA) reader (TECAN infinite M200pro). The mean and standard deviation values were calculated for each well and graphed.
FIGS. 41A-41D. Effect of Chlorhexidine (CHX) and CM002 treatment on viability of mouse and human myoblasts. To determine potential toxic effects of CHX and CM002, we treated mouse C2C12 myoblast cell line with increasing concentrations from 0.2-5 μM for 48 hours and determined cell viability using the MTT assay (FIG. 41A). […] Considering the inflammatory milieus in dystrophic muscles, we further tested the tolerance of myoblasts to these molecules in the presence of inflammatory stimuli, a cytokine cocktail (CC) consisted of 10 ng/mL IL-1β, 100 ng/mL IFN-γ and 25 ng/mL of TNF-α (FIG. 41B). […] Lastly, human primary myoblasts derived from Duchene Muscular Dystrophy (DMD) patients were used to determine their tolerance to these compounds.

[4] = tested on: C57/BL6 wild-type mice; assay: Cardiotoxin-induced acute muscle injury, intramuscular injection into TA muscle; assay type: in vivo, mouse; conditions: for eMyHC staining (new myofiber formation): after cardiotoxin injury, local intramuscular injection
From the text: FIGS. 42A-42B. CHX and CM002 promote nascent myofiber formation upon acute muscle injury. To determine whether the effect of CHX and CM002 on promoting myogenesis leads to improved muscle regeneration in vivo, we tested local intramuscular injection into TA muscle following acute injury by cardiotoxin in normal C57/BL6 wild-type mice. […] Collectively, these findings indicate that these clock-activating molecules are capable of inducing myogenic response via local administration leading to sustained new myofiber formation following acute muscle injury.

[5] = tested on: primary bone marrow-derived macrophages; assay: NLRP3 inflammasome and CHOP expression in primary bone marrow-derived macrophages; assay type: cell-based; conditions: for NLRP3 and CHOP with LPS stimulation: LPS challenge; for NLRP3 expression, basal unstimulated: immunoblot
From the text: FIGS. 46A-46D. […] Chronic inflammation in dystrophic muscle, due to the persistent muscle damage with sustained degeneration and regeneration cycles, is a significant component of the pathogenic characteristics of muscular dystrophy contributing to muscle wasting. We thus determined potential ameliorative effects of CHX and CM002 on muscle inflammation in the mdx mice.

[6] = tested on: dystrophin-deficient mdx primary myoblasts; assay: Myogenic differentiation of mdx primary myoblasts (MyHC staining); assay type: cell-based, mouse; conditions: for mature myofiber/myocyte formation (MyHC staining): 2% FBS, vs DMSO
From the text: FIGS. 16A-16B. Pro-myogenic effect of chlorhexidine on dystrophin-deficient mdx primary myoblasts. FIG. 16A: We used primary myoblasts isolated from male mdx mice as a cellular model to test the effect of CHX on myogenesis. […] Both of the pro-myogenic and proliferative effects of CHX observed in mdx primary myoblasts were consistent with prior findings from C2C12 myoblasts. Additional validations of these effects are on-going using myoblasts derived from human DMD patients.
FIGS. 22A-22B. […] Using primary myoblasts isolated from mdx mice, we determined CM002 effect on myogenesis in this dystrophic disease cellular model. […] Similar as shown in C2C12 myoblasts, this effect was stronger than that of CHX.

For `[H]/N=C(\N/C(=N/[H])NCCCCCCNC(=N)NC(=N)Nc1ccc(Cl)cc1)Nc1ccc(Cl)cc1` [CHX, chlorhexidine], the “FASN, terminal differentiation marker” value ([1]; day 6 of differentiation) was “markedly attenuated the terminal differentiation marker of adipocytes, FASN”, the adipogenic factor induction ([1]; day 6 of differentiation) was “only resulted in a tendency toward suppressing adipogenic factor induction” and the mature adipocyte formation ([1]; six days of differentiation) was “dose-dependent, marked effect on suppressing mature adipocyte formation”. The myotube hypertrophy ([2]; 0.5 μM, Day 7) was “induced notable myotube hypertrophy”, the “morphological progression of myotube formation” value ([2]; 2% serum differentiation, phase-contrast) was “markedly accelerated the morphological progression of myotube formation” and the “induction of Myf5 and eMyhc in Bmal1-deficient myoblasts” value ([2]; BMKD myoblasts) was “loss of CHX induction of Myf5 and eMyhc”. The “differentiation of Bmal1 shRNA (BMKD) myoblasts” value ([2]; BMKD vs SC) was “failed to augment BMKD myoblast differentiation”, the “MyHC-positive mature myotubes (immunofluorescence)” value [2] was “increased numbers of MyHC-positive mature myotubes” and the “effective concentration range, pro-myogenic activities” value ([2]; C2C12 myoblasts) was 0.2 to 0.5 µM. The toxicity during differentiation ([2]; CHX at 2 and 5 μM) was “appeared to be toxic to myoblasts with cell death during differentiation”, the “Myf5, Myod1 and eMyhc expressions” value ([2]; RT-qPCR) was “significantly induced by 0.5 μM CHX with a tendency toward higher expression 0.2 μM” and the “Myf5 and Myogenin proteins” value ([2]; day 3 and day 5 of differentiation, immunoblot) was “early induction of myogenic factors Myf5 and Myogenin proteins”. For the same compound, the “concentration causing cell death” value ([3]; with cytokine cocktail) was ≥ 500 nM, the Pax7 protein ([4]; CTX-injected TA muscle) was “robustly increased” and the “eMyHC staining (new myofiber formation)” value [4] was “substantial amount of eMyHC staining indicative of sustained nascent myofiber regeneration”. For the same compound, the “concentration inducing CHOP (ER stress marker)” value [5] was ≥ 1000 nM, the “NLRP3 and CHOP with LPS stimulation” value [5] was “failed to inhibit NLRP3 inflammasome and displayed stimulatory effect at high concentrations accompanied with CHOP induction” and the “NLRP3 expression, basal unstimulated” value [5] was “able to attenuate its expression”. The “pro-myogenic effect in Bmal1-deficient (BMKO/mdx) primary myoblasts” value ([6]; day 3 of differentiation) was “abolished in Bmal1-deficient mdx primary myoblasts” and the “mature myofiber/myocyte formation (MyHC staining)” value ([6]; day 3 of differentiation) was “significantly elevated formation of mature myofibers”.

`CCCCCC/C=N/C(=N)NC(=N)Nc1ccc(Cl)cc1` [CM002] was tested, and the “reduction of adipocyte formation in Bmal1-deficient (BMKO) preadipocytes” value ([1]; six days of differentiation) was “severely blunted”, the mature adipocyte formation ([1]; six days of differentiation) was “strongly inhibited their differentiation; also recorded: dose-dependent reductions by CM002 at 0.5 and 1 μM concentration” and the “adipocyte formation, compound given after initial two days of adipogenic induction” value ([1]; vs presence throughout differentiation) was “still retained its efficacy of blocking adipocyte formation largely to the same extent”. For the same compound, the “MyHC-positive mature myotubes (immunofluorescence)” value [2] was “enhanced differentiation induced by 0.5 μM CM002 than CHX with strongest effect on promoting myotube formation observed at CM002 at 1 μM”, the Myogenesis ([2]; Table 1 summary of CHX analogs) was “Enhanced” and the “concentration up to which cells remain viable” value ([3]; mdx, mouse) was “up to 1 μM”. For the same compound, the “cell death at 2.5 μM” value ([3]; mdx, mouse, 2.5 μM) was “significantly less cell death at 2.5 μM”, the “MyoD, Myf5 and Myogenin levels” value ([4]; CTX-injected TA muscle) was “elevated levels of MyoD, Myf5 and Myogenein” and the Pax7 protein ([4]; CTX-injected TA muscle) was “robustly increased”. For the same compound, the “eMyHC staining (new myofiber formation)” value [4] was “substantial amount of eMyHC staining indicative of sustained nascent myofiber regeneration”, the “NLRP3 and CHOP with LPS stimulation” value [5] was “suppressed NLRP3 in the presence of LPS without inducing CHOP” and the “NLRP3 expression, basal unstimulated” value [5] was “able to attenuate its expression”. For the same compound, the “myotube fusion, cells seeded at low density” value ([6]; 1 μM vs 0.5 μM, day 3) was “more advanced myotube fusion than that of 0.5 μM” and the “mature myofiber/myocyte formation (MyHC staining)” value ([6]; day 3 of differentiation) was “significantly enhanced mature myocyte formation induced by 0.5 μM CM002 treatment”.
